Converted amounts (≈) assume the structure as drawn.
What was measured:
[1] = target: T1, human C5a receptor (CD88) (Homo sapiens, UniProt P21730); assay: C5a induced enzyme (glucosaminidase) release assay in RBL cells expressing the human C5a receptor (Example 28); format: cell-based; conditions: inhibition of C5a induced enzyme release, RBL cells with human C5aR; read-out: Activity-range (antagonistic activity, IC50 enzyme release)
T1 construct: expressed in transfected cells; host or cells: rat basophilic leukemia (RBL) cells, stably transfected
T1 sequence (P21730 1-350): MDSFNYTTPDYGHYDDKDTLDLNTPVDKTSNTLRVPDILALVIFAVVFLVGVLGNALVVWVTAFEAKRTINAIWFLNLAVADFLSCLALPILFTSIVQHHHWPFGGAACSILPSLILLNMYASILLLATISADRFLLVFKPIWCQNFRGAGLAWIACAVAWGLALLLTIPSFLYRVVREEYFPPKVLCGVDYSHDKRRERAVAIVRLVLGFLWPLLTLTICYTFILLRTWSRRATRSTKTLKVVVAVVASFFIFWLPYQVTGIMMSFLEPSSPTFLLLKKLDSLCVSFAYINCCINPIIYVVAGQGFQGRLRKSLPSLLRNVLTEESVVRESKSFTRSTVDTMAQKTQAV
In short: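 Rat basophilic leukemia (RBL) cells expressing human C5a receptor, at 2×10^6 cells/ml, primed with cytochalasin B, then incubated with test compound 10 min at 37 °C.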

[2] = Solubility in aqueous HEPES buffer by HPLC (Example 33); format: physicochemical; conditions: kinetic from dmso stock
Description: To determine the solubility the compound to be measured is dissolved (e.g, […] of a 5 mM solution in DMSO) in organic solvent (e.g. 198 μl DMSO) as well as in aqueous buffer solution (e.g. 198 μl HEPES buffer). Both solutions are analyzed via analytical HPLC and the areas under the peaks are compared. The value for the organic solution is taken as 100%.

C5a induced neutropenia = C5a induced neutropenia in gerbils (Example 35); format: in vivo, gerbils (Meriones unguiculatus); conditions: gerbil
Description: C5a induced neutropenia is a model for shock induced diseases (e.g. septic shock), where amongst others the systemic role of C5a (blood pressure decrease, neutropenia) plays an important role. The reason for the decrease of the neutrophils in the circulation is their binding to the vessel walls due to the C5a stimulus. These processes of neutrophil recruitment are playing an important role in many other diseases like reperfusion injury. […]
Male gerbils (Meriones unguiculatus) are anaesthesized i.p. with ketamine (80 mg/kg) and xylazine (12 mg/kg). The animals are intubated and a catheter is inserted in the jugular vene and the animals are subjected to the following procedure:
1. The gerbils are pre-treated with vehicle or the compounds of the present invention 80 (3 mg/kg) or 131 (1 mg/kg) via i.v. infusion.
One minute before compound treatment a blood sample is taken.
2. 10 minutes after the infusion of the compounds the gerbils are treated i.v. with 100 μg/kg hrC5a. […]
White blood cell counts are measured with a haematology-cell-counter. […]
The differential cell count is determined as the sum of neutrophils, eosinophile, easophile, lymphocytes and monocytes from 100 cells. Then, the percentage of neutrophils in relation to all white blood cells is determined. […]

C5a receptor [3] = target: T2, C5a receptor (Homo sapiens, UniProt P21730); conditions: cited from earlier work
T2 sequence (P21730 1-350): T1 sequence (P21730 1-350)

C5a receptor [4] = target: T2, C5a receptor; conditions: cited from earlier work; remark: listed apart in the source
[5] = Stability (shelf life) as solid TFA salt, RP-HPLC (Example 25); format: physicochemical; conditions: light, room temperature, up to 7 days
Description: The fractions containing the desired compound are lyophilized. In this way 1-40 mg of the compounds 11 and 13 are isolated as solid. Due to the basic amino groups the compounds are obtained as TFA salts. 0.5-10 mg of the solid are stored under the influence of light at room temperature to determine their stability over time.
The conditions were as follows:
FIG. 1 A): after purification via HPLC (solution in MeCN/H2O/TFA),
FIG. 1 B) after lyophilization (0 days of storage as solid)
FIG. 1 C) after 7 days of storage as solid

C5a receptor [6] = target: T2, C5a receptor; conditions: cited from earlier work; remark: listed apart in the source

SMILES: CCc1ccc(N(C(=O)Nc2c(CC)c(N)cc(Cl)c2CC)[C@@H](C)c2ccc(Cl)cc2)cc1 [compound 80, (S)-3-(3-amino-5-chloro-2,6-diethyl-phenyl)-1-[1-(4-chlor-phenyl)-ethyl]-1-(4-ethyl-phenyl)-urea]
- IC50 [1]: < 0.06 µM
- solubility [2]: 4 µM (≈ 1.94 µg/mL)
- Effect on C5a induced neutropenia (C5a induced neutropenia; 3 mg/kg i.v. infusion 10 min before 100 μg/kg hrC5a): significantly reduces C5a induced neutropenia

SMILES: CC(C)Cc1ccc([C@@H](C)C(=O)NCCC[N+]2(C)CCCCC2)cc1.[I-] [Compound 6]
- activity in a chemotaxis assay (C5a receptor [3]): 24 µM

SMILES: NC(N)=Nc1ccc(OCCc2ccccc2)c(-c2ccccc2)c1 [Compound 5]
- activity (C5a receptor [4]): 0.8 µM

SMILES: CC(C)c1ccc(N(Cc2ccc(N(C)C)cc2)C(=O)Nc2c(C(C)C)cccc2C(C)C)cc1 [Compound 11, 3-(2,6-diisopropyl-phenyl)-1-(4-dimethylamino-benzyl)-1-(4-isopropyl-phenyl)-urea, reference compound]
- Stability on storage as solid [5]: not stable
- IC50 [1]: 0.2 to 5 µM
- binding affinity to the C5a receptor (C5a receptor [6]): 100 nM

SMILES: CCc1c(N)cc(Cl)c(CC)c1NC(=O)N(c1ccc(NC)cc1)[C@@H](C)c1ccc(Cl)cc1 [compound 131, (S)-3-(3-amino-5-chloro-2,6-diethyl-phenyl)-1-[1-(4-chloro-phenyl)-ethyl]-1-(4-methylamino-phenyl)-urea]
- Effect on C5a induced neutropenia (C5a induced neutropenia; 1 mg/kg i.v. infusion 10 min before 100 μg/kg hrC5a): significantly reduces C5a induced neutropenia

SMILES: CCc1c(N)cc(Cl)c(CC)c1NC(=O)N(Cc1ccc(OC)cc1)c1ccc(C(C)C)cc1 [compound 13]
- Stability on storage as solid [5]: does not show such instabilities

From US8071810B2, “C5a receptor antagonists” (Jerini AG, priority 2005, dated 2011)
